Experimental data published in patent publication US11459336B2, “Pyrazine carbamates and their use as GluN2B receptor modulators” (JANSSEN PHARMACEUTICA NV, priority 2019, dated 2022).

Key:
[1] = Liver microsomal stability assay (extraction ratio); format: in vitro ADME; settings: test compound 1 μM; 0.5 mg/mL liver microsomes, 1 mM NADPH, 37° C.; species not given (method: mouse, rat, and human)
Experimental: Microsomal stability studies (see, Chrovian et al, “1H-Pyrrolo[3,2-b]pyridine GluN2B-Selective Negative Allosteric Modulators”. ACS Med Chem Lett. 2019 Jan. 10; 10(3):261-266) were conducted on a Biomek® FX Robotic Liquid Handling Workstation (Beckman Coulter, Brea, Calif.), which consists of a 96-channel pipette head, a 12-position workstation deck, and a plate incubator. Test compounds (1 μM) were spiked in a reaction mix consisting of 100 mM potassium phosphate buffer (pH 7.4), 3 mM MgCl2, and 0.5 mg/mL liver microsomes from mouse, rat, and human (BD Gentest). The reaction was brought to 37° C. and initiated by adding NADPH to a final concentration of 1 mM. After mixing on the platedeck, 50 μL aliquots were excised from the reaction plate at 0, 5, 10, 20, 40, and 60 min and quenched with four volumes of acetonitrile spiked with […] of the internal standard phenytoin. Quenched plates were centrifuged at 5700 rpm for 10 min at 4° C., and supernatant was diluted 1:3 in water before LC/MS/MS analysis. The compound half-lives were derived from plots of the ln of percent remaining compound over time to determine the intrinsic clearance. The predicted hepatic clearance was derived from the intrinsic clearance value using equations from the well-stirred model (Current Drug Metabolism, 2008, 9, 940-951), where no correction was made plasma protein binding and the blood to plasma concentration ratio was assumed to be one. The extraction ratio (ER) was calculated by dividing the predicted hepatic clearance by species blood flow (Q), where Q is 90, 55, and 21.7 mL/min/kg for mouse, rat and human, respectively.

[2] = biological target: T1, human GluN1/GluN2B NMDA receptors (Homo sapiens, UniProt Q05586+Q13224); assay: Calcium flux (FLIPR) assay on cloned human GluN1/GluN2B ion channels expressed in mammalian cells, standard assay; format: cell-based; settings: glutamate ~EC40, 10 μM glycine, stable cell line with Tet-On induced expression
T1 construct: expressed in transfected cells
T1 sequence (Q13224 27-1484, other chains not shown): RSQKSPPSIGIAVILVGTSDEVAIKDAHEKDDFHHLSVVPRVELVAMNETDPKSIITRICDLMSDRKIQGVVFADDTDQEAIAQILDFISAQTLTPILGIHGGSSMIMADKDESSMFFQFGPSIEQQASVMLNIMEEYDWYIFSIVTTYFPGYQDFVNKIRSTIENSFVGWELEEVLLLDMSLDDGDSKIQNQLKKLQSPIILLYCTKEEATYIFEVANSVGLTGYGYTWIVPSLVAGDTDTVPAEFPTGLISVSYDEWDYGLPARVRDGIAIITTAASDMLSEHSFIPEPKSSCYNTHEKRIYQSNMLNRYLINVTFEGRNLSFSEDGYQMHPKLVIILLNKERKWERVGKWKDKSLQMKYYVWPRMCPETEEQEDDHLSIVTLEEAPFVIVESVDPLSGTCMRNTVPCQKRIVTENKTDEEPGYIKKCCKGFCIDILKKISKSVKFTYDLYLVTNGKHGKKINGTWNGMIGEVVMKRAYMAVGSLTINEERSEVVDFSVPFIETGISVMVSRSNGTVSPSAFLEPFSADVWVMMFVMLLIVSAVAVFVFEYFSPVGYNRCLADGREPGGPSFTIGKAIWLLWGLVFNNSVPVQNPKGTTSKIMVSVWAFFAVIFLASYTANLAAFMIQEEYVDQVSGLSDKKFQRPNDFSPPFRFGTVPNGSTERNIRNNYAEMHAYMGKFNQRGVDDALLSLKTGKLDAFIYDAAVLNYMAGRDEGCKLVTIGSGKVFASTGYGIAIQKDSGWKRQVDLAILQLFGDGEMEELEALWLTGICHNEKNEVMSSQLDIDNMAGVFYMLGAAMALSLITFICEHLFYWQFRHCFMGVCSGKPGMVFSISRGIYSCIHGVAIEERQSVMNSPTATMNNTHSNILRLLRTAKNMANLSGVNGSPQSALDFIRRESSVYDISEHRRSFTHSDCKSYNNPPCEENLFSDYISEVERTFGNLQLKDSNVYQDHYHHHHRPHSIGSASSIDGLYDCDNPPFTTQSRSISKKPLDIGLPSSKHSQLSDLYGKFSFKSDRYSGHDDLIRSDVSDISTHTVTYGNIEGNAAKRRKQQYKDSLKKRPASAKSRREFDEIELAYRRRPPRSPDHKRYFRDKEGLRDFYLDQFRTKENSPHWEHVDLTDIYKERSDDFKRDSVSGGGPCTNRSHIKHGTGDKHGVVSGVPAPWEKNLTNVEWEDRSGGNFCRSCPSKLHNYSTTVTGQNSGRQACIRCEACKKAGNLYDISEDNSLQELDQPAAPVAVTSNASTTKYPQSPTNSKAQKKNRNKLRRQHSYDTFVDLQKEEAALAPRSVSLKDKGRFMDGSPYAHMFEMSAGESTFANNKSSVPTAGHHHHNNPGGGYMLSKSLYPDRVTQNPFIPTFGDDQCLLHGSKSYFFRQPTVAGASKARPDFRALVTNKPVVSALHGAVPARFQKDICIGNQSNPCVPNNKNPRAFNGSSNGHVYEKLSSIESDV
Experimental: (§1) NMDA receptors are ion channels that are highly permeable to Ca^2+ ions, rendering it possible to monitor NMDA receptor function using cell-based calcium flux assay. In this assay, co-agonists glutamate and glycine are added to cells heterologously expressing human GluN1/GluN2B NMDA receptors to initiate cellular Ca^2+ influx. The time course of the changes in intracellular calcium is measured using a fluorescent dye and a FLIPR (Fluorometric Imaging Plate Reader) device.
(§2) Twenty four hours before measurements, the expression of the NMDA receptors in the stable cell line is induced with Tet-On inducible system in the presence of a non-selective NMDA receptor blocker. On the day of the experiment, cell culture media is carefully washed and the cells are loaded with Calcium 5 Dye Kit (Molecular Devices) in dye loading buffer containing 137 mM NaCl, 4 mM KCl, 2 mM CaCl2, 0.5 mM MgCl2 (standard assay) or 1.5 mM MgCl2 (HTS assay), 10 mM HEPES and 5 mM D-glucose; pH 7.4. After 1 h incubation at the room temperature, the dye is washed away with the assay buffer (137 mM NaCl (standard assay) or 150 mM (HTS assay), 4 mM KCl (standard assay) or 3 mM (HTS assay), 2 mM CaCl2, 0.01 mM EDTA, 10 mM HEPES and 5 mM D-glucose; pH 7.4) In the FLIPR TETRA reader, various concentrations of the test compounds are added to the cells for 5 min while fluorescence is monitored to detect potential agonist activity. Next, co-agonists, glutamate and glycine are added for another 5 minutes. The concentration of glutamate corresponding to ˜EC40 (standard assay) or EC40 (HTS assay) is used to maximize the assay's signal window and ability to detect NMDA receptor antagonists and negative allosteric modulators. A saturating concentration (10 μM) of glycine is also present in the assay. A non-selective NMDA receptor antagonist, (+)MK-801 is used as a positive control for antagonist activity. The fluorescent signal in the presence of test compounds is quantified and normalized to the signal defined by the appropriate control wells.

[3] = biological target: T2, human GluN1/GluN2B NMDA receptors (Homo sapiens, UniProt Q13224); assay: as above; format: cell-based; settings: glutamate ~EC40, 10 μM glycine, stable cell line with Tet-On induced expression
T2 construct: expressed in transfected cells
T2 sequence (Q13224 27-1484, other chains not shown): as above
Experimental: as §1, §2

| Structure (SMILES) | Extraction Ratio @ 1 μM [1] | IC50 [2] [nM] | IC50 [3] [nM] |
| --- | --- | --- | --- |
| CNC(=O)C1CN(Cc2cncc(-c3ccc(F)c(C(F)F)c3)n2)C(=O)O1 (racemic) [Example 59, (R/S)-3-[[6-[3-(Difluoromethyl)-4-fluoro-phenyl]pyrazin-2-yl]methyl]-N-methyl-2-oxo-oxazolidine-5-carboxamide] | 0.18 | > 3000 | – |
| O=C1OC2(CC2)CN1Cc1cncc(-c2ccc(F)c(C(F)F)c2)n1 [Example 3, 5-[[6-[3-(Difluoromethyl)-4-fluoro-phenyl]pyrazin-2-yl]methyl]-7-oxa-5-azaspiro[2.4]heptan-6-one] | 0.05 | – | 13 |
| C[C@H]1COC(=O)N1Cc1cncc(-c2ccc(F)c(C(F)F)c2)n1 [Example 8, (4S)-3-[[6-[3-(Difluoromethyl)-4-fluoro-phenyl]pyrazin-2-yl]methyl]-4-methyl-oxazolidin-2-one] | 0.06 | – | 872 |
| Cc1ncc(-c2ccc(F)c(C(F)F)c2)nc1CN1C(=O)OC[C@H]1C [Example 11, (4R)-3-[[6-[3-(Difluoromethyl)-4-fluoro-phenyl]-3-methyl-pyrazin-2-yl]methyl]-4-methyl-oxazolidin-2-one] | 0.18 | – | 192 |
| Cc1ncc(-c2ccc(F)c(C(F)F)c2)nc1CN1CCCOC1=O [Example 15, 3-[[6-[3-(Difluoromethyl)-4-fluoro-phenyl]-3-methyl-pyrazin-2-yl]methyl]-1,3-oxazinan-2-one] | 0.06 | – | 65 |
